Legend:
Experiment in all cases: relative viability (nuclei count vs DMSO), 5 days (fraction); higher = more cells survive
ABC-1 = test system: ABC-1
How it was run: (§1)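 Lung cancer cell lines were seeded in 1536-well plates and dosed by pin tool the next day, with either a single drug or a fixed anchor-drug dose combined with five library-drug doses (not always all listed) spaced in √10 steps. Five days later, one step fixed the cells and stained their nuclei (final 0.05% Triton X-100, 1% formaldehyde, 1 ug/ml Hoechst), and nuclei were counted on 4× images. Relative viability is the nuclei count in treated wells divided by the count in vehicle wells, and each value is the median of duplicate plates.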

BEN = test system: BEN
How it was run: as §1

EPLC-272H = test system: EPLC-272H
How it was run: as §1

HCC-827 = test system: HCC-827
How it was run: as §1

HOP-62 = test system: HOP-62
How it was run: as §1

LU99A = test system: LU99A
How it was run: as §1

NCI-H1355 = test system: NCI-H1355
How it was run: as §1

NCI-H1563 = test system: NCI-H1563
How it was run: as §1

NCI-H1666 = test system: NCI-H1666
How it was run: as §1

NCI-H1792 = test system: NCI-H1792
How it was run: as §1

NCI-H1975 = test system: NCI-H1975
How it was run: as §1

NCI-H2170 = test system: NCI-H2170
How it was run: as §1

NCI-H23 = test system: NCI-H23
How it was run: as §1

NCI-H2405 = test system: NCI-H2405
How it was run: as §1

NCI-H3122 = test system: NCI-H3122
How it was run: as §1

NCI-H322M = test system: NCI-H322M
How it was run: as §1

NCI-H358 = test system: NCI-H358
How it was run: as §1

NCI-H520 = test system: NCI-H520
How it was run: as §1

NCI-H596 = test system: NCI-H596
How it was run: as §1

NCI-H647 = test system: NCI-H647
How it was run: as §1

NCI-H727 = test system: NCI-H727
How it was run: as §1

NCI-H838 = test system: NCI-H838
How it was run: as §1

PC-14 = test system: PC-14
How it was run: as §1

SW 900 = test system: SW 900
How it was run: as §1

UMC-11 = test system: UMC-11
How it was run: as §1

CCCCCCCCCCCC1=C(O)C(=O)C=C(O)C1=O [Embelin] + COc1cccc2cc(-c3nc([C@H]4CC[C@H](C(=O)O)CC4)n4ncnc(N)c34)[nH]c12 [OSI-027] (partner 0.5 µM)
relative viability (ABC-1; first compound 0.08 µM): 0.58
relative viability (ABC-1; first compound 0.8 µM): 0.646
relative viability (ABC-1; first compound 2.53 µM): 0.472
relative viability (ABC-1; first compound 8 µM): 0.552
relative viability (BEN; first compound 0.08 µM): 0.287
relative viability (BEN; first compound 0.8 µM): 0.341
relative viability (BEN; first compound 2.53 µM): 0.338
relative viability (BEN; first compound 8 µM): 0.289
relative viability (EPLC-272H; first compound 0.08 µM): 0.256
relative viability (EPLC-272H; first compound 0.8 µM): 0.319
relative viability (EPLC-272H; first compound 2.53 µM): 0.309
relative viability (EPLC-272H; first compound 8 µM): 0.255
relative viability (HCC-827; first compound 0.08 µM): 0.749
relative viability (HCC-827; first compound 0.8 µM): 0.797
relative viability (HCC-827; first compound 2.53 µM): 0.836
relative viability (HCC-827; first compound 8 µM): 0.866
relative viability (HOP-62; first compound 0.08 µM): 0.88
relative viability (HOP-62; first compound 0.8 µM): 0.922
relative viability (HOP-62; first compound 2.53 µM): 0.931
relative viability (HOP-62; first compound 8 µM): 0.812
relative viability (LU99A; first compound 0.08 µM): 0.323
relative viability (LU99A; first compound 0.8 µM): 0.358
relative viability (LU99A; first compound 2.53 µM): 0.27
relative viability (LU99A; first compound 8 µM): 0.282
relative viability (NCI-H1355; first compound 0.08 µM): 0.445
relative viability (NCI-H1355; first compound 0.8 µM): 0.559
relative viability (NCI-H1355; first compound 2.53 µM): 0.422
relative viability (NCI-H1355; first compound 8 µM): 0.279
relative viability (NCI-H1563; first compound 0.08 µM): 0.65
relative viability (NCI-H1563; first compound 0.8 µM): 0.772
relative viability (NCI-H1563; first compound 2.53 µM): 0.71
relative viability (NCI-H1563; first compound 8 µM): 0.758
relative viability (NCI-H1666; first compound 0.08 µM): 0.798
relative viability (NCI-H1666; first compound 0.8 µM): 0.935
relative viability (NCI-H1666; first compound 2.53 µM): 0.871
relative viability (NCI-H1666; first compound 8 µM): 0.865
relative viability (NCI-H1792; first compound 0.08 µM): 0.746
relative viability (NCI-H1792; first compound 0.8 µM): 0.884
relative viability (NCI-H1792; first compound 2.53 µM): 0.711
relative viability (NCI-H1792; first compound 8 µM): 0.838
relative viability (NCI-H1975; first compound 0.08 µM): 0.728
relative viability (NCI-H1975; first compound 0.8 µM): 0.817
relative viability (NCI-H1975; first compound 2.53 µM): 0.88
relative viability (NCI-H1975; first compound 8 µM): 0.768
relative viability (NCI-H2170; first compound 0.08 µM): 0.796
relative viability (NCI-H2170; first compound 0.8 µM): 0.733
relative viability (NCI-H2170; first compound 2.53 µM): 0.753
relative viability (NCI-H2170; first compound 8 µM): 0.737
relative viability (NCI-H23; first compound 0.08 µM): 0.695
relative viability (NCI-H23; first compound 0.8 µM): 0.672
relative viability (NCI-H23; first compound 2.53 µM): 0.582
relative viability (NCI-H23; first compound 8 µM): 0.562
relative viability (NCI-H2405; first compound 0.08 µM): 0.64
relative viability (NCI-H2405; first compound 0.8 µM): 0.665
relative viability (NCI-H2405; first compound 2.53 µM): 0.659
relative viability (NCI-H2405; first compound 8 µM): 0.658
relative viability (NCI-H3122; first compound 0.08 µM): 0.857
relative viability (NCI-H3122; first compound 0.8 µM): 1.15
relative viability (NCI-H3122; first compound 2.53 µM): 1.31
relative viability (NCI-H3122; first compound 8 µM): 0.875
relative viability (NCI-H322M; first compound 0.08 µM): 0.523
relative viability (NCI-H322M; first compound 0.8 µM): 0.744
relative viability (NCI-H322M; first compound 2.53 µM): 0.645
relative viability (NCI-H322M; first compound 8 µM): 0.512
relative viability (NCI-H358; first compound 0.08 µM): 0.774
relative viability (NCI-H358; first compound 0.8 µM): 1.01
relative viability (NCI-H358; first compound 2.53 µM): 0.898
relative viability (NCI-H358; first compound 8 µM): 1.07
relative viability (NCI-H520; first compound 0.08 µM): 0.227
relative viability (NCI-H520; first compound 0.8 µM): 0.319
relative viability (NCI-H520; first compound 2.53 µM): 0.401
relative viability (NCI-H520; first compound 8 µM): 0.238
relative viability (NCI-H596; first compound 0.08 µM): 0.773
relative viability (NCI-H596; first compound 0.8 µM): 0.854
relative viability (NCI-H596; first compound 2.53 µM): 0.771
relative viability (NCI-H596; first compound 8 µM): 0.454
relative viability (NCI-H647; first compound 0.08 µM): 0.684
relative viability (NCI-H647; first compound 0.8 µM): 0.72
relative viability (NCI-H647; first compound 2.53 µM): 0.963
relative viability (NCI-H647; first compound 8 µM): 0.649
relative viability (NCI-H727; first compound 0.08 µM): 0.659
relative viability (NCI-H727; first compound 0.8 µM): 0.79
relative viability (NCI-H727; first compound 2.53 µM): 0.494
relative viability (NCI-H727; first compound 8 µM): 0.709
relative viability (NCI-H838; first compound 0.08 µM): 0.403
relative viability (NCI-H838; first compound 0.8 µM): 0.463
relative viability (NCI-H838; first compound 2.53 µM): 0.38
relative viability (NCI-H838; first compound 8 µM): 0.436
relative viability (PC-14; first compound 0.08 µM): 0.81
relative viability (PC-14; first compound 0.8 µM): 1.13
relative viability (PC-14; first compound 2.53 µM): 1.24
relative viability (PC-14; first compound 8 µM): 0.848
relative viability (SW 900; first compound 0.08 µM): 0.496
relative viability (SW 900; first compound 0.8 µM): 0.541
relative viability (SW 900; first compound 2.53 µM): 0.553
relative viability (SW 900; first compound 8 µM): 0.347
relative viability (UMC-11; first compound 0.08 µM): 0.441
relative viability (UMC-11; first compound 0.8 µM): 0.492
relative viability (UMC-11; first compound 2.53 µM): 0.511
relative viability (UMC-11; first compound 8 µM): 0.51

— the supplement of paper PMC10307832
